Entries after “also recorded” stand apart in the source; their conditions may differ. Ends that are not written are not given here.
Key:
C57BL/6 mice [1] = test: In vivo luciferase imaging after retro-orbital injection of AAV8/luc with peptides; set-up: species or system mouse; conditions: 0.1 mM peptides + 5E+10 vg AAV8/luc, retro-orbital vein, 7th day
Description: Animal study. […] Mice were administered with AAV8/Luc incubated with peptides via retro-orbital injection. Luciferase expression was imaged at the indicated time points using a Xenogen IVIS Lumina (Caliper Lifesciences, Waltham, MA) following intraperitoneal injection of D-luciferin substrate (Nanolight Pinetop, AZ). Bioluminescent images were analyzed using Living Image (PerkinElmer, Waltham, MA). At various time points after injection, blood was collected from the retro-orbital plexus, and the viral titers were tested by qPCR.

C57BL/6 mice [2] = test: Quantitation of luciferase expression in tissues; type: in vivo, mouse; conditions: 0.1 mM peptides + 5E+10 vg AAV8/luc
Description: Quantitation of luciferase expression in tissues. Animals utilized for imaging studies were sacrificed after one-week post imaging work, and the tissues of the heart, liver, spleen, skeletal muscle and brain were collected, and were minced and homogenized in passive lysis buffer. Then the lysates were centrifuged at 10,000 rpm for 5 minutes to remove cellular debris. Supernatant was transferred to 96-well plates for luciferase activity analysis as described above. Total protein concentration in tissue lysates was measured using the Bradford assay (Bio-Rad Laboratories, Philadelphia, PA).

C57BL/6 mice [3] = test: Measurement of AAV genome copy number in tissue; type: in vivo, mouse; conditions: 0.1 mM peptides + 5E+10 vg AAV8/luc; vs AAV8 only
Description: Measurement of AAV genome copy number in tissue. Total gDNA from different minced tissues was isolated with the DNeasy blood & tissue kit (Qiagen, USA). Luciferase gene was measured by qPCR assay. Mouse-lamin gene served as an internal control.

[4] = tested on: human transferrin binding to AAV8 virions; test: AAV8 competitive binding assay; conditions: pre-incubation with AAV8, then human transferrin; pull down with transferrin antibody, qPCR
Description: AAV8 competitive binding assay. For THR competitive binding analysis, 10 ul of Protein G resin (Thermo, USA) per system was incubated with 1 ug of human transferrin antibody or goat IgG antibody control at 4° C. overnight. […] After that, the mixture was added to the complex of protein G resin and transferrin antibody and incubated at 4° C. overnight. Finally, the complex was stringently washed three times with cold DPBS. DNA from the complex was extracted and applied for qPCR to determine AAV genome copy number per cell using luc specific primers.
To investigate whether THR also binds to the same location of AAV8 virions as human serum proteins, we performed a competitive assay. […] The transferrin antibody was used to pull down transferrin bound AAV8 virions and AAV8 gene copy number was measured by qPCR.

[5] = tested on: HEK293 cells or Huh7 cells; test: In vitro transduction assay, AAV8/luc with peptides; type: cell-based, human; conditions: 10000 vg AAV8/luc incubated with peptides 2 h at 4° C.; both cell lines; 48 h; vs AAV8 only
Description: In vitro transduction assay. At least 4-5 h prior to AAV transduction, cells were seeded in 48-well plates with a density of 1E+05 cells each well. Cells were infected with 1E+04 vector genomes (vg) of AAV8/luc virus per cell and harvested after 48 h. Luciferase activity was measured following manufacturer's instruction (Promega, Madison, WI).
The complex of AAV8 and peptides influences AAV8 transduction in vitro and in vivo. To identify the potential and functional peptides that enhanced AAV8 transduction, we screened several reported peptides as shown in Table 5 and Table 6. First, we tested the cytotoxicity of peptides at different concentrations on cells. […] After that, we performed the transduction assay in vitro. We incubated the 10000 vg AAV8/luc and peptides for 2 h at 4° C., and then applied the mixture to HEK293 cells or Huh7 cells. After 48 h, the cell lysate was collected for luciferase analysis.

[6] = tested on: Huh7, Hela, C2C12 and hCMEC/D3; test: AAV9/luc transduction in cell lines with PB5-3; type: cell-based
Description: Cell proliferation was analyzed with MTT assay (FIG. 14A). […] Luciferase expression from cell lysate was detected (FIG. 14B).
PB5-3 peptide specifically enhances AAV9 transduction in cell lines. Next, we examined the effect of PB5-3 on AAV9 transduction in vitro. […] Consistent with previous studies, the direct interaction of peptide and AAV virions is required to enhance AAV9 transduction.

AAV9 virions = test: Phage binding to AAV-coated plate
Description: FIGS. 13A-13B show binding specificity of PB5-3 peptide to AAV9. After coating with 1×10^10 particles of AAV9, different phages at a dose of 1×10^11 were added to a 96 well plate and incubated. After washing, the number of bound phages was detected (FIG. 13A). A 96 well-plate was coated with 1×10^10 particles of AAV vectors/well from serotypes 6, 8 and 9 overnight. After washing, 1×10^11 of PB5-3 phages were added and incubated at room temperature for 2 hrs. After washing, the phage particles were detected (FIG. 13B).
To study the AAV9 virion binding affinity of the peptides isolated from phage, first we compared the affinity of the different peptides to AAV9 virions. After incubation of an AAV9-coated plate with different phages and several washings, much more PB5-3 phages were detected to bind to AAV9 than PB5-5 and PB5-14 phages (FIG. 13A). […] We coated the plate with AAV virions from different serotypes. After incubation with PB5-3 phages, the number of phages on the AAV9-coated plate was much higher than that with AAV6 and AAV8 (FIG. 13B).

C57BL mice [7] = test: Systemic administration of AAV6 and AAV8 pre-incubated with PB5-3, imaging; type: in vivo, mouse; conditions: pre-incubated with PB5-3, days 5 and 10
Description: AAV/luc vectors from serotypes 6 or 8 at a dose of 5×10^10 or 1×10^10 particles, respectively, were incubated with PB5-3 for 2 hrs at 4° C. The complex was injected into C57BL mice via retro-orbital vein. At day 5 and 10 post AAV injection, mouse imaging was carried out. Representative imaging is shown from five mice.
No effect of PB5-3 peptide on AAV brain transduction from other serotypes after systemic administration. To confirm the result in vitro that PB5-3 peptide could not efficiently bind to other AAV serotypes except for AAV9, we administered AAV6 and AAV8 vectors pre-incubated with PB5-3 in C57BL mice via retro-orbital injection. At days 5 and 10 post AAV application, mouse imaging was carried out.

C57BL mice [8] = test: Systemic administration of AAV9/PB5-3 complex, imaging and genome copy number; type: in vivo, mouse
Description: 1×10^10 particles of AAV9/luc vectors were incubated with PB5-3 for 2 hr at 4° C. The complex was injected into C57BL mice via the retro-orbital vein. At indicated time points, mouse imaging was performed. (FIG. 16A) representative imaging. (FIG. 16B) luciferase expression. (FIG. 16C) AAV genome copy number. The results represented the average and standard derivation from five mice.
PB5-3 peptide enhances AAV9 transduction in the brain after systemic administration. To study the effect of PB5-3 peptide on AAV9 transduction in mice, we injected AAV9 vectors pre-incubated with PB5-3 peptide into C57BL mice via the retro-orbital vein. At days 1, 3, 7, and 14 post AAV administration, mouse imaging was taken. […] Transduction in the liver was similar regardless of AAV9 pre-incubation with PB5-3 peptide (FIG. 16B). Consistent to tissue transgene expression, AAV genome copy number in the brain but not in other tissues was higher in mice receiving the complex of AAV9 and PB5-3 (FIG. 16C).

Huh7 or hCMEC/D3 cells = test: Transduction of AAV serotypes 2, 6 and 8 with PB5-3 in vitro; type: cell-based; conditions: incubated with PB5-3; either cell line
Description: 1×10^9 particles of AAV/luc vectors from serotype 2 (FIG. 15A), 6 (FIG. 15B), and 8 (FIG. 15C) were incubated with PB5-3 peptide for 2 hr at 4° C. The complex of AAV vector and peptide was applied to Huh7 or hCMEC/D3 cells. Two days later, the lysate from these cells was harvested for luciferase analysis.
Analysis of enhancement of AAV transduction from other serotypes with PB5-3 peptide in vitro. To further investigate the specific effect of PB5-3 on AAV9, we tested the effect of PB5-3 on AAV transduction from other serotypes. AAV vectors from serotypes 2, 6, and 8 were incubated with PB5-3 and then the mixture was applied to Huh7 or hCMEC/D3 cells. The transduction was detected two days later after AAV infection.

[9] = tested on: BBB hCMEC/D3 endothelial cells; test: In vitro endothelial cell permeability analysis of AAV9; type: cell-based, human; conditions: AAV9 pre-incubated with PB5-3 vs AAV9 with DPBS
Description: Media in the basal chamber was collected at indicated time points and viral genome copy number was analyzed by qPCR. All treatments were performed in triplicate. *p<0.05 when compared to cells with the AAV9 only.
PB5-3 peptide enhances AAV9 permeability in vitro. To study whether PB5-3 affects the ability of AAV9 to cross the endothelial cell layer, we performed an in vitro endothelial cell permeability analysis in a well-defined system using BBB hCMEC/D3 endothelial cells. Two groups were designed: an AAV9 vector incubated with DPBS (AAV9 cohort); and an AAV9 vector incubated with PB5-3 (AAV9-PB5-3 cohort). […] These observations indicate that the interaction of AAV9 with the PB5-3 peptide increased the ability of AAV9 to cross the BBB.

different cell types = conditions: different concentrations, 48 hrs
Description: 1×10^4 cells were incubated with PB5-3 peptide at different concentrations for 48 hrs. Cell proliferation was analyzed with MTT assay (FIG. 14A). AAV9/luc vectors at a dose of 1×10^9 particles were incubated with PB5-3 peptide for 2 hrs at 4° C., then the mixture was applied to different cells and incubated for 2 days. Luciferase expression from cell lysate was detected (FIG. 14B). For comparison, PB5-3 was added to cells just before infection of AAV9 (FIG. 14C).

| Substance | transgene expression in the liver (imaging) (C57BL/6 mice [1]) | AAV8 brain transduction (luc expression and genome number) (C57BL/6 mice [2]) | AAV genome copy number in the brain (C57BL/6 mice [3]) | AAV8 transduction (luciferase) [5] | also measured |
| --- | --- | --- | --- | --- | --- |
| (LRKLRKRLL)2 (LRKLRKRLLLRKLRKRLL) [ApoE (159-167)2] | higher | increased AAV8 transduction in the brain | much higher | – | – |
| FILMVWAPFI [PEPXT-1, control peptide, neutral polarity] | – | – | – | – | inhibition of transferrin binding to AAV8 [4]: no effect |
| GRKKRRQRRRPPQ [HIV-1 TAT (48-60)] | higher | no effect on brain transduction | – | significantly enhanced AAV8 transduction | AAV8 liver transduction (C57BL/6 mice [2]): increased AAV8 liver transduction |
| KKALLALALHHLAHLALALKKAC [LAH4] | higher | no effect on brain transduction | – | significantly enhanced AAV8 transduction | AAV8 liver transduction (C57BL/6 mice [2]): increased AAV8 liver transduction |
| QFAALPVRAHYG-NH2 [PB5-3] | – | – | – | – | AAV9 transduction, PB5-3 incubated with AAV9 virions ([6]; 2 hrs at 4° C. pre-incubation, Huh7, Hela, C2C12 and hCMEC/D3): enhanced transduction; also recorded: specifically enhances AAV9 transduction in vitro; AAV9 transduction, PB5-3 without incubation ([6]; PB5-3 added to cells just before infection of AAV9): failed to increase AAV9 transduction; number of phages on AAV9-coated plate vs other serotypes (AAV9 virions; vs AAV6 and AAV8 coated plates): much higher; phages bound to AAV9-coated plate (AAV9 virions; vs PB5-5 and PB5-14 phages): much more; brain transduction from AAV6 and AAV8 (C57BL mice [7]): No brain transduction enhancement; also recorded: no effect; AAV9 transduction in brain (imaging) (C57BL mice [8]; 1×10^10 particles AAV9/luc pre-incubated with PB5-3, retro-orbital vein): specifically enhanced AAV9 ability to cross the BBB and increase brain transduction; also recorded: high transduction in brain tissues; AAV genome copy number in the brain (C57BL mice [8]; complex of AAV9 and PB5-3, not in other tissues): higher; AAV9 transduction in the liver (C57BL mice [8]; with vs without PB5-3 pre-incubation): similar; transduction of AAV2, 6 or 8 (Huh7 or hCMEC/D3 cells): No enhanced transduction; also recorded: no enhancement; endothelial cell permeability of AAV9 [9]: significant increase in the endothelial cell permeability; also recorded: increases AAV9 permeability; toxicity (MTT assay) (different cell types): no toxicities |
| TFFYGGSRGKRNNFKTEEY-OH [Angiopep-2] | higher | increased AAV8 transduction in the brain | much higher | – | – |
| YQQILTSMPSRNVIQISNDLENLRDLLHVL [Leptin 30 (61-90)] | higher | increased AAV8 transduction in the brain | much higher | significantly enhanced AAV8 transduction | – |

Source: patent US12281335B2, “Methods and compositions for delivery of viral vectors across the blood-brain barrier” (priority 2017, dated 2025)
